For one data set, the system named is K562. Briefly: ED50 and therapeutic index in leukemic mice (K562). Conditions: po, mice. The data set is classed as in vivo.
In data set [1] the test system is AKT, ERK and Pi3k in ZR71 breast cancer cells. Briefly: Western blot analysis, ZR71. The data set is classed as cell-based. As to conditions: 24 h. As for the experimental part:
(§1) Western blot analysis of 4910, 5310 and U87 glioma cells and MDAMB231 and ZR71 breast cancer cells in the presence of specified concentrations of compounds were assessed as per standard protocols. Cells were treated with AN019, AN024 or Temozolomide at the specified concentrations. 24 h after treatment, cells were collected and cell lysates extracted. Equal quantities of proteins were fractionated by SDS-PAGE. The fractionated proteins were blotted on to nylon membranes and immunoprobed for AKT, ERK and Pi3k. Breast cancer cell protein isolates were additionally immunoprobed for EGFR, ErbB1, ErbB2 and ErbB3.
On the technique in general: A western blot detects proteins with antibodies after separation by electrophoresis.

The next data set relates to 4910 glioma cells. Description: In vitro angiogenic assay, 4910 conditioned media on human dermal endothelial cells. The data set is classed as cell-based. Conditions: 4910 cells. As for the experimental part:
(§2) The in vitro angiogenesis of 4910, 5310 and U87 glioma cells and MDAMB231 and ZR71 breast cancer cells in the presence of specified concentrations of compounds were determined as follows, cells (2×10^4/well) were seeded in 8-well chamber slides and were treated with various concentrations of test compounds. After a 24 h incubation period, the conditioned media was removed and added to a 4×10^4 human dermal endothelial cell (monolayer in 8-well chamber slides) and the human dermal endothelial cells were allowed to grow for 72 h. Cells were then fixed in 3.7% formaldehyde and stained with H&E and photographed.

Another data set has as its system K562luc cells. Description: Determination of drug temporal penetrance (Tp). The data set is classed as in vivo, nude mice. Conditions: daily ip from day 15 to day 35, imaged till day 45; AN019 20 mg/kg, AN024 20 mg/kg, Imatinib 10 mg/kg. The protocol: The temporal penetrance was calculated applying the following equation, […].
P=photon counts at day ‘a’, day ‘ter’, or day ‘b’ where ‘a’ is the day when drug treatment was stopped and ‘ter’ is the day when the experiment was terminated and ‘b’ is the day where P is minimum after day a but before day ‘ter’.
n=number of animals alive when P was measured.
The animals were imaged at 6 day intervals post transplantation. […] Drug treatment was stopped on day 35 and animals were imaged till day 45, and calculated as described in methods.

Data set [2] deals with Baf3 murine leukemia cells Wt. Briefly: Blast cell count in nude mice implanted with Baf3 Wt cells. It is filed as in vivo. Conditions: Baf3Wt; Imatinib 10 mg/kg, AN019 20 mg/kg, AN024 20 mg/kg, oral gavage or ip from day 15; day 42. From the text: (§3) Blood smears were obtained via the tail vein or via the femoral vein every 6th day and blast cells counted and graphically represented.
(§4) Abdominal swelling and decrease in activity was monitored daily, blood smear taken via the tail vein or the femoral vein every 6th day and H&E stained as per standard protocols. 42 days after implantation, mice were sacrificed and spleens harvested.
(§5) Blood from tail vein or the femoral vein was taken every 6th day from Baf3 cell implanted mice until day 42.
(§6) Nude mice were intraperitoneally implanted with Baf3 mutant cells (wt, T315I, M351T or E255K). […] Blood was drawn from the femoral vein or tail vein every 6th day and blast cell count determined and graphically represented.

Data set [3] relates to 4910 human glioma xenograft cells. Description: Glioma radiation studies, intracranial tumours. The data set is classed as in vivo, nude mice. As for the experimental part: Nude mice were intracranially implanted with 4910 human glioma xenograft cells (1×10^6 cells) intracranially. Ten days after implantation mice were treated with AN019, AN024 or temozolomide with or without radiation (5 Gy/week). The experiment was terminated at day 40 post implantation.

Data set [4] has as its system AKT, ERK and Pi3k in 5310 glioma cells. Description: Western blot analysis, 5310. It is filed as cell-based. As to conditions: for PI3k levels: 24 h. As for the experimental part: as §1
In the next data set the test system is ZR71 breast cancer cells. Description: In vitro angiogenic assay, ZR-71 conditioned media on human dermal endothelial cells. The data set is classed as cell-based. Conditions: ZR-71 cells, radiation status not specified. The protocol: as §2
In data set [5] the test system is Baf3 murine leukemia cells T315I. Briefly: Blast cell count in nude mice implanted with Baf3 T315I cells. The data set is classed as in vivo. Conditions: Baf3T315I; Imatinib 10 mg/kg, AN019 20 mg/kg, AN024 20 mg/kg, oral gavage or ip from day 15; day 42.
Source text: as §3, §4, §5, §6

Data set [6] deals with MDAMB231 breast cancer cells. Description: In vitro angiogenic assay, MDA-MB-231 conditioned media on human dermal endothelial cells. The data set is classed as cell-based. As to conditions: MDA-MB-231 cells. The protocol:
as §2

The subject of data set [7] is Baf3 murine leukemia cells M351T. Briefly: Blast cell count in nude mice implanted with Baf3 M351T cells. Conditions: Baf3M351T; Imatinib 10 mg/kg, AN019 20 mg/kg, AN024 20 mg/kg, oral gavage or ip from day 15; day 42. The data set is classed as in vivo.
Source text: as §3, §4, §5, §6

In data set [8] the test system is Baf3 murine leukemia cells E255K. Description: Blast cell count in nude mice implanted with Baf3 E255K cells. It is filed as in vivo. Conditions: Baf3E255K (printed E225K); Imatinib 10 mg/kg, AN019 20 mg/kg, AN024 20 mg/kg, oral gavage or ip from day 15; day 42.
Source text: as §3, §4, §5, §6

Data set [9] relates to K562 luciferase expressing cells. Description: Leukemic survival study. It is filed as in vivo, nude mice. From the text:
K562 luciferase expressing cells were implanted intraperitoneally into nude mice; the mice were scanned using the xenogeny IVIS image station after ip injections of luciferin does determine implantations. Drug treatment was started as in previous studies day 15 after implantation. The animals were given treatment till day 42, after which drug treatment was stopped and survival of the animals determined as per the animal care regulations. […] Drug treatment was withdrawn on day 42 post implantation and survival of animals determined.

The test system of data set [10] is pAKT and pERK in glioma and breast cancer cells. Briefly: Western blot analysis of pAKT and pERK, cell line not stated. As to conditions: for pERK levels: both with and without radiation. The data set is classed as cell-based. The protocol:
as §1

A further data set relates to 5310 glioma cells. Briefly: In vitro angiogenic assay, 5310 conditioned media on human dermal endothelial cells. Conditions: 5310 cells. It is filed as cell-based. As for the experimental part: as §2

For `Cc1ccc(NC(=O)c2cc(C(F)(F)F)cc(C(F)(F)F)c2)cc1Nc1nccc(-c2cccnc2)n1` [AN019], the “ED50 (po) Mice” value with K562 was found to be 11.5 mg/kg. Further, the AKT levels result is on record as “enhanced after radiation” in data set [1] (ZR71, after radiation) and “decrease in AKT levels” in [1] (ZR71, without radiation). For the same compound, the PI3k levels result in [1] (ZR71, with radiation) was “absent”; in [1] (ZR71, without radiation), “absent”; in data set [4] (5310, after radiation treatment), “reappeared after radiation treatment”; in [4] (5310, without radiation), “almost undetectable”. In addition, the inhibition of angiogenesis result in the data set on 4910 glioma cells (with radiation) was “increase in angiogenic inhibition after radiation”; with ZR71 breast cancer cells it was “complete inhibition of angiogenesis”; in [6] (with radiation), “slight inhibition”. In addition, the “temporal penetrance (Tp)” value in the data set on K562luc cells was found to be 2.0. The “blast cell count in blood smears” value in data set [2] was “complete regression of leukemic blast cells”; in [5], “significant decrease in blast cell count”; in [7] it was “significant decrease in blast cell count”; in data set [8] it was “significant decrease in blast cell count”. In [3] (without radiation), the “intracranial tumours (size, appearance)” value was “tumours similar to AN024 treated animals”. Moreover, the AKT expression levels result in data set [4] (5310, 24 h) is “decrease in AKT expression levels”. The “MTD Mice” value (Maximum Tolerated Dose) amounted to 500 mg/kg. For the same compound, the “LD50 (po) Mice” value (po) stood at 1133 mg/kg. Further, in [9] (drug treatment withdrawn on day 42 (FIG. 6C)), the “blast cell count from blood smears after withdrawal of drug treatment” value is “showed effectiveness after withdrawal of drug treatment”. Besides, in [9] (of 10 animals, treatment day 15 to day 42, then withdrawn, AN024 read on day 55), the “animals showing no signs of leukemia / complete absence of leukemic symptoms” value stood at 7 animals. Also, in data set [9] (treatment day 15 to day 42, then withdrawn), the “mortality (day post implantation)” value is reported as “did not show any mortality”. In data set [10], the pERK levels result is on record as “reduced significantly”.

For `Cn1nnc2c(C(N)=O)ncn2c1=O` [Temozolomide, reference compound], the inhibition of angiogenesis entry in the data set with 4910 glioma cells (with radiation) is listed as “significant inhibition of angiogenesis”; in the data set on 4910 glioma cells (without radiation), “significant inhibition of angiogenesis”; in the data set on 5310 glioma cells (after radiation treatment), “angiogenesis was promoted”; in the data set with 5310 glioma cells (control conditions (without radiation)), “inhibition of angiogenesis was seen”; in the data set on ZR71 breast cancer cells, “complete inhibition of angiogenesis”; in [6] (control condition (without radiation)) it was “only a slight inhibition”. The inhibition of angiogenesis entry in [6] (with radiation) is “increase in inhibition after radiation”. For the same compound, the results for the “intracranial tumours (size, appearance)” value in [3] (with radiation (5 Gy/week)) and in [3] (without radiation) were “further regression in tumor size” and “reduction in intracranial tumours”, respectively. Also, the pERK levels entry in data set [10] is recorded as “did not show any significant change”. Besides, the pAKT levels entry in [10] (with or without radiation) is given as “did not show any significant change”.
